Laboratory results as given in paper PMC9607427, “Novel 7-Chloro-(4-thioalkylquinoline) Derivatives: Synthesis and Antiproliferative Activity through Inducing Apoptosis and DNA/RNA Damage” (Pharmaceuticals, 2022).
pIC50: −log10 of the molar value.

Key:
Type in all cases: cell-based, human
[1] = Cytotoxic MTS assay, BJ; settings: human, BJ cells (noncancerous foreskin fibroblasts); MTS, 72 h of incubation
Protocol: (§1) In vitro cytotoxic activity of final compounds 5–82 was evaluated after 3 days of incubation against eight cell lines derived from human solid tumors including lung (A549 cells) and colon (HCT116 and HCT116p53−/−) carcinomas, as well as leukemia cell lines (CCRF-CEM, CEM-DNR, K562, and K562-TAX) and osteosarcoma (U2OS cells). For comparison, non-malignant BJ and MRC-5 fibroblasts, and BJLD and MCR-5LD fibroblasts doxorubicin-resistant cell lines were used. Concentrations inhibiting the cell growth by 50% (IC50) were determined using a quantitative metabolic staining with 3-(4,5-dimethylthiazol-2yl)-5-(3-carboxymethoxyphenyl)-2-(4-sulfophenyl)-2H-tetrazolium (MTS) and are summarized in (Table 3).
(§2) Cytotoxic activity was determined by MTS assay following 72 h of incubation. IC50 is the lowest concentration that kills 50% of cells. The standard deviation in cytotoxicity assays is typically up to 20% of the average value. […] The tested cell lines: A549 (lung adenocarcinoma), BJ (noncancerous human fibroblasts from foreskin), BJLD (human lung fibroblast doxorubicin-resistant), CCRF-CEM (childhood T cell acute lymphoblastic leukemia), a daunorubicin-resistant subline of CCRF-CEM cells (CEM-DNR bulk), HCT116 (colorectal carcinoma), HCT116p53−/− (HCT116 with deleted p53 gene), K562 (chronic myeloid leukemia), K562-TAX (chronic myeloid leukemia paclitaxel-resistant subline), MRC-5 (noncancerous human lung fibroblasts), MRC-5LD (noncancerous human lung fibroblasts doxorubicin-resistant), and U2OS (osteosarcoma).
(§3) All cell lines were purchased from the American Tissue Culture Collection (ATCC). The A549 cell line is lung adenocarcinoma. MRC-5 and BJ cell lines were used as a non-tumor control and represent human fibroblasts. (MRC-5 LD and BJLD) are doxorubicin-resistant human lung fibroblast cell lines. The CCRF-CEM line is derived from T lymphoblastic leukemia, evincing high chemosensitivity, whereas K562 represent cells from an […] patient sample with bcr-abl translocation. The daunorubicin-resistant subline of CCRF-CEM cells (CEM-DNR bulk) and paclitaxel-resistant subline K562-TAX were selected in our laboratory by the cultivation of maternal cell lines in increasing concentrations of daunorubicin or paclitaxel, respectively. The CEM-DNR bulk cells overexpress MRP-1 and P-glycoprotein protein, whereas K562-TAX cells overexpress P-glycoprotein only. Both proteins belong to the family of ABC transporters and are involved in the primary and/or acquired multidrug-resistance phenomenon. The U2OS cell line is derived from osteosarcoma, HCT116 is a colorectal tumor cell line and its p53 gene knock-down counterpart (HCT116p53−/−, Horizon Discovery Ltd., Cambridge, UK) is a model of human cancers with p53 mutation frequently associated with poor prognosis. The cells were maintained in nunc/corning 80 cm^2 plastic tissue culture flasks and cultured in a cell culture medium according to ATCC or Horizon recommendations (DMEM/RPMI 1640 with 5 g/L glucose, 2 mM glutamine, 100 U/mL penicillin, […], 10% fetal calf serum, and NaHCO3).
(§4) The activity of compounds was determined using a standard 3-(4,5-dimethylthiazol-2-yl)-5-(3-carboxymethoxyphenyl)-2-(4-sulfophenyl)-2H-tetrazolium (MTS) and it was performed at the Institute of Molecular and Translational Medicine by a robotic platform (High-ResBiosolutions). Cell suspensions were prepared and diluted according to the particular cell type and the expected target cell density (25,000–35,000 cells/mL based on cell growth characteristics). Cells were added by automatic pipettor (30 µL) into 384-well microtiter plates. All tested compounds were dissolved in 100% DMSO and four-fold dilutions of the intended test concentration were added in 0.15 µL aliquots at time zero to the microtiter plate wells by the echo acoustic non-contact liquid handler Echo550 (Labcyte). […]

[2] = tested on: K562-TAX (chronic myeloid leukemia paclitaxel-resistant subline); test: Cytotoxic MTS assay, K562-TAX; settings: Homo sapiens, K562-Tax; MTS, 72 h of incubation; read-out: Cytotoxic activity IC50, K562-TAX
Protocol: as §1, §2, §3, §4

[3] = tested on: K562 (chronic myeloid leukemia); test: Cytotoxic MTS assay, K562; settings: Homo sapiens, K562; MTS, 72 h of incubation; read-out: Cytotoxic activity IC50, K562
Protocol: as §1, §2, §3, §4

[4] = tested on: U2OS (osteosarcoma); test: Cytotoxic MTS assay, U2OS; settings: Homo sapiens, U2OS; MTS, 72 h of incubation; read-out: Cytotoxic activity IC50, U2OS
Protocol: as §1, §2, §3, §4

[5] = Cytotoxic MTS assay, BJLD; settings: human, BJLD cells (fibroblasts, doxorubicin-resistant); MTS, 72 h of incubation
Protocol: as §1, §2, §3, §4

[6] = tested on: HCT116 (colorectal carcinoma); test: Cytotoxic MTS assay, HCT116; settings: Homo sapiens, HCT-116; MTS, 72 h of incubation; read-out: Cytotoxic activity IC50, HCT116
Protocol: as §1, §2, §3, §4

[7] = Cytotoxic MTS assay, MRC-5; settings: human, MRC-5 cells (noncancerous lung fibroblasts); MTS, 72 h of incubation
Protocol: as §1, §2, §3, §4

[8] = tested on: A549 (lung adenocarcinoma); test: Cytotoxic MTS assay, A549; settings: Homo sapiens, A549; MTS, 72 h of incubation; read-out: Cytotoxic activity IC50, A549
Protocol: as §1, §2, §3, §4

[9] = tested on: HCT116p53−/− (HCT116 with deleted p53 gene); test: Cytotoxic MTS assay, HCT116p53−/−; settings: Homo sapiens, HCT-116; MTS, 72 h of incubation; read-out: Cytotoxic activity IC50, HCT116-p53
Protocol: as §1, §2, §3, §4

[10] = tested on: CEM-DNR bulk (daunorubicin-resistant subline of CCRF-CEM cells); test: Cytotoxic MTS assay, CEM-DNR; settings: Homo sapiens, CEM-DNR; MTS, 72 h of incubation; read-out: Cytotoxic activity IC50, CEM-DNR
Protocol: as §1, §2, §3, §4

[11] = Cytotoxic MTS assay, MRC-5LD; settings: human; MTS, 72 h of incubation; read-out: Cytotoxic activity IC50, MRC5-LD
Protocol: as §1, §2, §3, §4

[12] = tested on: CCRF-CEM (childhood T cell acute lymphoblastic leukemia); test: Cytotoxic MTS assay, CCRF-CEM; settings: Homo sapiens, CCRF-CEM; MTS, 72 h of incubation; read-out: Cytotoxic activity IC50, CCRF-CEM
Protocol: as §1, §2, §3, §4

| SMILES | IC50 at 72 h [1] [µM] | pIC50 [2] | pIC50 [3] | pIC50 [4] | IC50 at 72 h [5] [µM] | pIC50 [6] | IC50 at 72 h [7] [µM] | pIC50 [8] | pIC50 [9] | pIC50 [10] | IC50 at 72 h [11] [µM] | pIC50 [12] |
| --- | --- | --- | --- | --- | --- | --- | --- | --- | --- | --- | --- | --- |
| O=C(OCCC[S+]([O-])c1ccnc2cc(Cl)ccc12)c1ccc(C(F)(F)F)cc1 (stereo not drawn) [Compound 62, 3-[(7-Chloroquinolin-4-yl)sulfinyl]propyl-4-(trifluoromethyl)benzoate] | 29.9 | 5.04 | 4.75 | 4.84 | 30.1 | 4.81 | 29.4 | 4.58 | 5.02 | 4.98 | 25.9 | 5.93 |
| COc1ccc(C(=O)OCCC[S+]([O-])c2ccnc3cc(Cl)ccc23)cc1[N+](=O)[O-] (stereo not drawn) [Compound 59, 3-[(7-Chloroquinolin-4-yl)sulfinyl]propyl-4-methoxy-3-nitrobenzoate] | 21.6 | 5.21 | 5.06 | 5.29 | 10.2 | 5.05 | 23.7 | 5.11 | 5.17 | 5.06 | 10.3 | 5.92 |
| COc1cc(C(=O)OCCS(=O)(=O)c2cc[n+]([O-])c3cc(Cl)ccc23)cc(OC)c1OC [Compound 67, 2-[(N-Oxide 7-chloroquinolin-4-yl)sulfonyl]ethyl-3,4,5-trimethoxybenzoate] | 24.8 | 5.28 | 5.22 | 5.03 | 11.9 | 4.96 | 5.79 | 4.55 | 5.10 | 5.05 | 3.24 | 5.98 |
| [O-][S+](CCO)c1ccnc2cc(Cl)ccc12 (stereo not drawn) [Compound 41, 2-[(7-Chloroquinolin-4-yl)sulfinyl]ethanol] | 33.3 | 4.67 | 4.56 | 4.66 | 28.5 | 4.63 | 26.5 | 4.46 | 4.65 | 4.46 | 24.5 | 5.34 |
| COc1ccccc1C(=O)OCC[S+]([O-])c1ccnc2cc(Cl)ccc12 (stereo not drawn) [Compound 47, 2-[(7-Chloroquinolin-4-yl)sulfinyl]ethyl-2-methoxybenzoate] | 31.2 | 4.95 | 4.77 | 4.72 | 30.7 | 4.80 | 28.2 | 4.49 | 4.95 | 4.57 | 26.1 | 5.56 |
| COc1cccc(C(=O)OCCC[S+]([O-])c2ccnc3cc(Cl)ccc23)c1OC (stereo not drawn) [Compound 54, 3-[(7-Chloroquinolin-4-yl)sulfinyl]propyl-2,3-dimethoxybenzoate] | 30.4 | 5.12 | 4.85 | 4.77 | 26.9 | 4.85 | 27.2 | 4.59 | 5.04 | 4.99 | 25.1 | 5.96 |
